The values that follow come from patent publication US20230210819A1, “USE OF BENZISOSELAZOLE DERIVATIVE FOR ANTI-CORONAVIRUS AND CONTROL OF INTERSTITIAL LUNG DISEASE (ILD) RELATED TO CORONAVIRUS” (SHANGHAI YUANXI MEDICINE CORP., priority 2020, published 2023).

Structures are written as SMILES. “Also recorded” adds a separate entry of the source.

Series [1] is described as follows: Body weight, bleomycin-induced mice, 7-d modeling. It is filed as in vivo, C57 mice. Conditions: for Body weight decreased by: day 1 to day 28. Here is the method: Animals of 7-d modeling were randomly divided into 7 groups according to the table below, 6 animals per control group and 12 animals per test group.
(§1) Drug administration began 24 h or 7 d after modeling. […] The day of the first administration was counted as D1, the next day as D2, and so forth. The normal groups and Model groups were given 200 µL of normal saline daily by gavage administration.
(§2) All the animals were observed once daily during the experiment for death or dying, feces, ingestion, mental state and behavior and activity. Abnormalities were recorded in time. All the animals were weighed once before grouping and once before each dose.
(§3) In this experiment, 105 C57 mice were randomly selected and subjected to organ drip administration of a single dose of bleomycin at 2.5 mg/kg for 24 h or 7 d for induction. After 7 days of induction, 3 model mice were randomly selected and dissected to determine whether the modeling was successful. After modeling, the survival of the mice was recorded. The living states of the mice were observed and their body weight was measured at a fixed time.
A normal control group comprised 6 mice.

The subject of series [2] is bleomycin-induced mouse lung disease model. The series is described as follows: Lung and spleen coefficients, 24-h modeling. The format is in vivo, C57 mice. Here is the method: (§4) Animals of 24-h modeling were randomly divided into 5 groups according to the table below, 3 animals per control group and 5 animals per test group.
as §1
Method: after being euthanized, the animals were dissected, and the heart, liver, spleen, lung and kidney were weighed.
as §3
A normal control group comprised 3 mice.

Series [3] shares this test system. The experiment in a line: Lung HE pathological analysis (Ashcroft score), 24-h modeling. The format is in vivo, C57 mice. As to conditions: for HE score (pulmonary fibrosis, Ashcroft): 15 fields of view. The procedure: as §4, §1
1. […] Specifically, a mold was prepared first, and then the tissue was laid flat at the bottom of the mold; after the section face was arranged facedown, the embedding box cover was put on the mold; molten wax was poured into the mold until it overflowed the mold, and then the mold was gently lifted up and laid flat in a freezing platform; after being rapidly cooled and frozen for about 10 min, the mold was took out. • 6) Sectioning method
2. HE staining • 1) A flat section was selected for HE staining. • 2) The section was dewaxed in xylene I for 20 min. • 3) The section was dewaxed in xylene II for 20 min. • 4) The section was soaked in absolute ethanol for 10 min. • 5) Stepwise rehydrating, in absolute ethanol for 5 min, in 90% ethanol for 5 min, in 80% ethanol for 5 min, and in […] for 5 min; and a water wash. • 6) Staining with hematoxylin for 3-5 min. A water wash. • 7) Differentiating with 1% HCl-[…] for 5-10 s. A water wash, and bluing. • 8) Staining with eosin for 30-60 s. A water wash. • 9) Washing with 80% ethanol for 3-5 s, with 95% ethanol for 3-5 s, and with absolute ethanol for 3-5 s. • 10) Coverslipping with neutral resin, observing under a microscope, and photographing.
HE sectioning: 3 sections were consecutively made; flat sections of complete tissue were selected for HE staining; each of the sections was photographed in 3 randomly selected fields of view at 200x magnification. The obtained images were scored.
The general standard Ashcroft scoring method for pulmonary fibrosis tissues was adopted in HE scoring. The HE pathological analysis is an outcome evaluation for irreversible pulmonary fibrosis that develops in interstitial lung disease models.
For 5 animals from each of the 24-h modeling groups, a total of 15 HE fields of view were scored. […] According to the scoring criteria, a score below 3 points indicates there has been no significant structural change accompanying in the lung tissues.

Series [4] can be described thus: Toxic or side effects on mice on gavage administration. It is filed as in vivo. Conditions: BS 36, 90 and 180 mg/kg. Here is the method:
Accordingly, the above dosages were selected as the dosages for administration in this experiment,
as §2

Setting [5] is: 24-h modeling, BS 90 mg/kg gavage daily.
Where [6] appears, read: Dex 1-1.5 mg/kg i.p. every two days.
Where [7] appears, read: 24-h modeling, Dex 1-1.5 mg/kg i.p. every two days.

Turning to `O=c1c2ccccc2[se]n1CCCCn1[se]c2ccccc2c1=O` [BS, 1,4-[bis(1,2-benzisoselenazol-3(2H)-one)]butane], the Body weight in series [1] (BSH: BS 180 mg/kg gavage daily, D1) was determined as 19.88 ± 0.47 g; in series [1] (BSH: BS 180 mg/kg gavage daily, D7) it was 19.45 ± 0.62 g; in series [1] (BSH: BS 180 mg/kg gavage daily, D14) it was 19.26 ± 0.44 g; in series [1] (BSH: BS 180 mg/kg gavage daily, D21), 19.13 ± 0.54 g; in series [1] (BSH: BS 180 mg/kg gavage daily, D28), 19.19 ± 0.71 g; in series [1] (BSL: BS 36 mg/kg gavage daily, D1), 17.80 ± 0.72 g. Also, the Body weight in series [1] (BSL: BS 36 mg/kg gavage daily, D7) came to 17.49 ± 0.84 g; in series [1] (BSL: BS 36 mg/kg gavage daily, D14), 17.37 ± 0.80 g; in series [1] (BSL: BS 36 mg/kg gavage daily, D21), 17.23 ± 0.76 g; in series [1] (BSL: BS 36 mg/kg gavage daily, D28) it was 17.23 ± 0.82 g; in series [1] (BSM: BS 90 mg/kg gavage daily, D1), 18.20 ± 0.87 g; in series [1] (BSM: BS 90 mg/kg gavage daily, D7) it was 17.89 ± 0.92 g. The Body weight came to 17.63 ± 0.79 g in series [1] (BSM: BS 90 mg/kg gavage daily, D14); 17.46 ± 0.73 g in series [1] (BSM: BS 90 mg/kg gavage daily, D21); 17.41 ± 0.72 g in series [1] (BSM: BS 90 mg/kg gavage daily, D28). Also, the “Body weight decreased by” value in series [1] (BSH: BS 180 mg/kg gavage daily) was 3.62%; in series [1] (BSL: BS 36 mg/kg gavage daily), 3.39%; in series [1] (BSM: BS 90 mg/kg gavage daily) it was 4.53%. This molecule also gave a Lung coefficient in series [2] (BS 90 mg/kg gavage daily) of 0.89±0.04%. Further, the Spleen coefficient in series [2] (BS 90 mg/kg gavage daily) is listed as 0.37±0.02%. The “Effect on spleen coefficient (in words)” value in series [2] (BS 90 mg/kg, effect better than that of Dex) is “significantly decrease the spleen coefficient”. Further, the “Effect on lung tissue structure, HE (in words)” value in series [3] (24-h model, early stage of pulmonary fibrosis, BS 90 mg/kg) is recorded as “significantly reduce structural changes in lung tissues”. The “HE score and benefit rate, >4 points (fields/total)” value in series [3] (setting [5]) is listed as 3/15. In addition, in series [3] (setting [5]), the “HE score and benefit rate, >4 points (percent of fields)” value was determined as 20.0%. In addition, in series [3] (setting [5]), the “HE score and benefit rate, >5, points (fields/total)” value is recorded as 0/15 0/15. The “HE score and benefit rate, >5, points (percent of fields)” value in series [3] (setting [5]) came out at 0% 0%. In addition, the “HE score and benefit rate, ≥3 points (fields/total)” value in series [3] (setting [5]) is 12/15. Besides, the “HE score and benefit rate, ≥3 points (percent of fields)” value in series [3] (setting [5]) is 80.0%. Besides, in series [3] (setting [5]), the “HE score (pulmonary fibrosis, Ashcroft)” value was found to be 3.00 ± 0.65. For the same molecule, the “Clear lung tissue damage (HE score up to 5 points), in words” value in series [3] (24-h modeling, after 35 days of administration, Dex 1-1.5 mg/kg, BS 90 mg/kg) was “no clear lung tissue damage occurred”. The “Toxic or side effects (in words)” value in series [4] was “no toxic and side effects; also recorded: no significant toxic or side effects”.

As to `C[C@@H]1C[C@H]2[C@@H]3CCC4=CC(=O)C=C[C@]4(C)[C@@]3(F)[C@@H](O)C[C@]2(C)[C@@]1(O)C(=O)CO` [Dex, dexamethasone, reference compound], in series [1] (Dex 1-1.5 mg/kg i.p. every two days, D1), the Body weight was found to be 17.79 ± 0.89 g. The Body weight in series [1] (Dex 1-1.5 mg/kg i.p. every two days, D7) came out at 17.61 ± 1.02 g. In series [1] (Dex 1-1.5 mg/kg i.p. every two days, D14), the Body weight worked out at 17.45 ± 0.96 g. The molecule further came in with a Body weight in series [1] (Dex 1-1.5 mg/kg i.p. every two days, D21) of 17.43 ± 0.92 g. In series [1] (Dex 1-1.5 mg/kg i.p. every two days, D28), this molecule returned a Body weight of 17.38 ± 0.85 g. In series [1] (setting [6]), the “Body weight decreased by” value is recorded as 2.42%. In series [2] (setting [6]), the Lung coefficient stood at 0.93±0.09% and the Spleen coefficient is 0.41±0.06%. In series [3] (setting [7]), the “HE score and benefit rate, >4 points (percent of fields)” value was determined as 0%; the “HE score and benefit rate, >5, points (percent of fields)” value amounted to 0% 0%; the “HE score and benefit rate, ≥3 points (percent of fields)” value is reported as 53.3%; the “HE score (pulmonary fibrosis, Ashcroft)” value was found to be 2.53 ± 0.52.
